Measured values reported in US20220041591A1, “COMPOUNDS FOR TREATING DIABETES AND/OR RELATED CONDITIONS” (AUCKLAND UNISERVICES LIMITED, priority 2018, published 2022).

Experiments:
[1] = for solubility in words at acid pH: pH 1.8; for solubility in words at alkaline pH (1 M NaOH): pH 11.1; for soluble in water: pH 11
Description: (§2) The compounds were titrated down to pH 8-9 with 1 M HCl and solubility determined immediately, and following overnight and longer term storage.
Light yellow solid. […] Add 1M NaOH.

human amylin (hA) = molecular target: T1, human amylin (hA) (Homo sapiens, UniProt P10997); experiment: Thioflavin-T assay, inhibition of amylin fibril formation; assay type: biochemical
T1 construct: Human amylin, also known as islet amylin amyloid polypeptide (IAPP), is a 37-residue peptide hormone
T1 sequence (P10997 34-70 limits assumed): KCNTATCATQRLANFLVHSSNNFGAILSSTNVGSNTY
Protocol: (§1) The ability of the compounds to inhibit human amylin (hA) fibril formation was assessed using the thioflavin-T assay, as described in J. F. Aitken et al., Suppression by polycyclic compounds of the conversion of human amylin into insoluble amylin amyloid., Biochem J., 374 (2003), 779-784. Inhibition was assessed at three hA:compound ratios (1:1, 1:0.1, 1:0.01) for each compound.
as §1, with “J” for “J.,”, “(2003)” for “(2003),”

[2] = Solubility and physical characteristics (1 M NaOH / 1 M HCl titration); details: for soluble during initial suspension and on titration and pH adjustment: Example 12, titrated down to pH 8-9 with 1 M HCl
Description: as §2
Light yellow solid. […] Add 1M NaOH.

solubility in words at acid pH [1]	solubility in words at alkaline pH (1 M NaOH) [1]	soluble in water [1]	soluble during initial suspension and on titration and pH adjustment [2]	Compound	also measured
Completely insoluble	Completely insoluble	–	–	COc1ccc(-c2cc(=O)n3c(O)cccc3n2)cc1OC [Compound 7]	–
Completely insoluble	Completely insoluble	–	–	O=c1cc(-c2cccc(O)c2)nc2cccc(O)n12 [Compound 6]	–
–	–	100%	95%	COc1ccnc(NC(=O)CC(=O)c2ccc(O)c(O)c2)c1 [Compound 9]	–

Continued, compound first:

Compound	solubility in words at acid pH [1]	solubility in words at alkaline pH (1 M NaOH) [1]	soluble in water [1]	soluble during initial suspension and on titration and pH adjustment [2]	also measured
COc1cccc(NC(=O)CC(=O)c2ccc(O)c(O)c2)n1 [Compound 1]	–	–	100%	100%	inhibition of hA fibril formation (human amylin (hA); Example 12, FIG. 1B, hA:compound ratio 1:0.1): Inhibition of hA fibril formation was observed
O=c1cc(-c2ccc(O)cc2)nc2cccc(O)n12 [Compound 5]	–	–	–	–	solubility at pH 7.4 ([1]; pH 7.4): lack of solubility; solubility below pH 10 ([1]; pH 10): not soluble; solubility in words after adding 1 M NaOH again, pH 10.4 ([1]; pH 10.4): completely soluble; soluble on addition of 1 M NaOH ([1]; pH 10.6): approx. 70%; solubility in words after leaving 30 min in 1M NaOH ([1]; pH 11.3): completely soluble; inhibition of hA fibril formation (human amylin (hA); Example 14, ratio not stated at the place): little inhibition; appearance after adding 1 M HCl, pH 8.9 ([2]; Example 14): slightly cloudy, some precipitation
